Tests used:
[1] = tested on: Zluc cells (Huh-7-derived cell line); experiment: Cytotoxicity evaluation, CellTiter-Blue Cell Viability Assay; format: cell-based; settings: read-out: HCV Replicon CC50
Experimental: (§1) For cytotoxicity evaluation, Zluc cells were treated with compound as described above, and cell viability was monitored using the CellTiter-Blue Cell Viability Assay (Promega) by adding 20 μL of the assay solution to each well. The plates were then incubated at 37° C./5% CO2 for at least 3 hours.

[2] = as above; format: cell-based; settings: human, Zluc cells (Huh-7-derived cell line), read-out: HCV Replicon CC50
Experimental: as §1

Structure (SMILES) | CC50 [1] [µM] | CC50 [2] [µM]
CCOC(=O)OC(C)OP(=O)(N[C@@H](C)C(=O)OC(C)C)OC[C@H]1O[C@@H](n2cnc3c(OC)nc(N)nc32)[C@](C)(F)[C@@H]1O (single isomer, unassigned) [Compound 15] | > 50 | –
CCOC(=O)OC(C)OP(=O)(N[C@@H](C)C(=O)OC(C)C)OC[C@H]1O[C@@H](n2cnc3c(OC)nc(N)nc32)[C@](C)(F)[C@@H]1O (single isomer, unassigned) [Compound 14] | – | > 50
